Results on 3 compounds are retold here after US7294651B2 (priority 2001, dated 2007).

Assay [1] relates to S. aureus (MN8). The format is cell-based.
In assay [2] the test system is TSST-1. The format is cell-based, S. aureus. On the set-up: ng TSST-1 per CFU: scale not given here.

Where “and” joins values, the source holds several entries; their conditions need not be identical. Equal values may be shown once.

Take `CC(=O)/C=C/C1=C(C)CCCC1(C)C` [Beta-ionone]: in assay [1], the CFU/mL worked out at 1.8E+08 CFU/mL and the “Optical Density” value stood at 0.688. Also, in assay [2], the “Reduction of Toxin %” value is listed as 100% and the “ng TSST-1 per OD Unit” value is listed as “none”.
As for myreth-3-myristate [Cetiol], the “CFU/mL × 10^8” value in assay [1] was 4.2 CFU/mL × 10^8 and 5.9 CFU/mL × 10^8 and 5.0 CFU/mL × 10^8. In assay [2], the “ng TSST-1 per CFU” value is 371 and 196 and 200; the “ng TSST-1 per mL” value was 1556 ng TSST-1 per mL and 1147 ng TSST-1 per mL and 989 ng TSST-1 per mL.
`CC1CCC(C(C)C)C(O)C1` (centres unmarked) [Menthol, menthol]: in assay [1], the “effect on the growth of S. aureus cells” value was “minimal, if any, effect”.
